{
  "source": "patent US7745475B2",
  "about": "“Heteroaryl benzamide derivatives as GLK activators” (AstraZeneca AB, priority 2004, dated 2010)",
  "key": {"[1]": {"target": "T1, recombinant human pancreatic GLK (Homo sapiens, UniProt P35557)", "T1 sequence (P35557 1-465)": "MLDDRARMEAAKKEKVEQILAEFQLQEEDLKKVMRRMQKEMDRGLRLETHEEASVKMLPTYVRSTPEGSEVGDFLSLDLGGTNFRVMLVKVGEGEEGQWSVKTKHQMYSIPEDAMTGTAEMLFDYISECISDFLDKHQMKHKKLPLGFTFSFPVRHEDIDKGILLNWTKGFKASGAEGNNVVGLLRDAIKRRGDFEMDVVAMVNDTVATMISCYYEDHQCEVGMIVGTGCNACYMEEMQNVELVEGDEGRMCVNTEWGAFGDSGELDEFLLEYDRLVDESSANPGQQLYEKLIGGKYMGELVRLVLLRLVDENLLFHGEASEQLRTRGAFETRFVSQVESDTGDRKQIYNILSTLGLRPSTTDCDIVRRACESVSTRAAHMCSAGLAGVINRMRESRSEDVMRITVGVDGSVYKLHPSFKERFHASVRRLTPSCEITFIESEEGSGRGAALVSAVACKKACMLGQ", "assay": "Enzymatic activity of recombinant human pancreatic GLK (G-6-P dehydrogenase coupled, OD 340 nm)", "conditions": "comparison in words"}, "Zucker obese fa/fa rats": {"system": "Zucker obese fa/fa rats", "assay": "Oral Glucose Tolerance Test (OGTT)", "assay_type": "in vivo, rat", "protocol": "(2) Oral Glucose Tolerance Test (OGTT)\nOral glucose tolerance tests were done on conscious Zucker obese fa/fa rats (age 12-13 weeks or older) fed a high fat diet (45% kcal fat) for at least two weeks prior to experimentation. The animals were fasted for 2 hours before use for experiments. A test compound or a vehicle was given orally 120 minutes before oral administration of a glucose solution at a dose of 2 g/kg body weight. Blood glucose levels were measured using a Accucheck glucometer from tail bled samples taken at different time points before and after administration of glucose (time course of […]). A time curve of the blood glucose levels was generated and the area-under-the-curve (AUC) for 120 minutes was calculated (the time of glucose administration being time zero). Percent reduction in glucose excursion was determined using the AUC in the vehicle-control group as zero percent reduction."}, "Oral exposure": {"assay": "Oral exposure", "assay_type": "in vivo", "conditions": "compared with Example II107 in WO 03/015774"}, "[2]": {"target": "T1, recombinant human pancreatic GLK", "assay": "biochemical"}},
  "data": [
    {"smiles": "Cc1nsc(NC(=O)c2cc(Oc3ccc(S(C)(=O)=O)cc3)cc(O[C@@H](C)CO)c2)n1", "note": "[Example 3a, 3-[(1S)-2-hydroxy-1-methylethoxy]-5-[4-(methylsulfonyl)phenoxy]-N-(3-methyl-1,2,4-thiadiazol-5-yl)benzamide]", "values": [
      {"measurement": "EC50 values, Example 3a compared with Example II107 in WO 03/015774", "setting": "[1]", "result": "broadly similar"},
      {"measurement": "OGTT activity (percent reduction in glucose excursion, AUC vs vehicle)", "setting": "Zucker obese fa/fa rats; 3 mg/kg, given orally", "result": 17, "unit": "%"},
      {"measurement": "oral exposure", "setting": "Oral exposure", "result": "superior oral exposure"},
      {"measurement": "EC50", "setting": "[2]", "result": 50, "unit": "nM"}
    ]},
    {"smiles": "C[C@@H](CO)Oc1cc(Oc2ccc(C(=O)N3CCC3)cc2F)cc(C(=O)Nc2ccn(C)n2)c1", "note": "[Example 4, 3-[4-(Azetidin-1-ylcarbonyl)-2-fluorophenoxy]-5-[(1S)-2-hydroxy-1-methylethoxy]-N-(1-methyl-1H-pyrazol-3-yl)benzamide]", "values": [
      {"measurement": "melting point", "result": 142, "unit": "°C"}
    ]},
    {"smiles": "CCn1ccc(NC(=O)c2cc(Oc3ccc(C(=O)N4CCC4)cc3F)cc(O[C@@H](C)CO)c2)n1", "note": "[Example 9, 3-{[4-(Azetidin-1-ylcarbonyl)-2-fluorophenyl]oxy}-N-(1-ethyl-1H-pyrazol-3-yl)-5-{[(1S)-2-hydroxy-1-methylethyl]oxy}benzamide]", "values": [
      {"measurement": "melting point", "result": 124, "unit": "°C"}
    ]},
    {"smiles": "Cc1nsc(NC(=O)c2cc(Oc3ccc(C(=O)N4CCC4)cc3F)cc(O[C@@H](C)CO)c2)n1", "note": "[Example 27, 3-[4-(Azetidin-1-ylcarbonyl)-2-fluorophenoxy]-5-[(1S)-2-hydroxy-1-methylethoxy]-N-(3-methyl-1,2,4-thiadiazol-5-yl)benzamide]", "values": [
      {"measurement": "melting point", "result": "173 to 175", "unit": "°C"}
    ]},
    {"smiles": "Cc1cnc(NC(=O)c2cc(OCCc3ccsc3)cc(OC(C)C)c2)s1", "note": "[Example II107, reference compound]", "values": [
      {"measurement": "OGTT activity", "setting": "Zucker obese fa/fa rats; 10 mg/kg", "result": "not active"}
    ]},
    {"smiles": "C[C@@H](CO)Oc1cc(Oc2ccc(S(C)(=O)=O)cc2)cc(C(=O)Nc2ccn(C)n2)c1", "note": "[compound 3, 3-[(1S)-2-Hydroxy-1-methylethoxy]-N-(1-methyl-1H-pyrazol-3-yl)-5-[4-(methylsulfonyl)phenoxy]benzamide]", "values": [
      {"measurement": "melting point", "result": "126 to 132", "unit": "°C"}
    ]}
  ]
}
